The source of these data is patent US10544095B2 (Pfizer Inc., priority 2015, dated 2020).

Assay [1] deals with hTDO2 in human glioblastoma A172 cells (Homo sapiens (Human), UniProt P48775). The experiment in a line: Cellular assay for TDO2 activity determination in A172 cells. The assay is classed as cell-based. The following applies: overnight incubation, kynurenine absorbance at 480 nm. In outline:
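Glioblastoma A172 cells with endogenous hTDO2, 1.25×10^4 cells/well, incubated overnight at 37° C. with ten serial compound concentrations in IMDM with 2% FBS. Supernatant kynurenine, after TCA precipitation and 4-(dimethylamino)-benzaldehyde reaction, read at 480 nm against kynurenine standard curve; data curve-fitted.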

For assay [2], the target named is TDO2 (Mus musculus (Mouse), UniProt P48776). Kind of assay: Pharmacodynamic assay for TDO2 in vivo activity: increase of blood tryptophan levels in mice. The conditions noted are these: female BALB/c mice, plasma after two hours. On the procedure: The compounds of the present invention increase the amount of Tryptophan in mouse blood. Briefly, female BALB/c mice (7-8 weeks old) were treated with either a suspension of one of the compounds of the present invention in 0.5% hydroxypropyl methyl cellulose (HPMC) K4M (4000 mPa·s (cPs), Methocell™, Dow chemical)/0.25% Tween® 20 (Sigma Aldrich) at different doses (30, 60 and 100 mg/kg), or with a vehicle control (0.5% HPMC K4M/0.25% Tween 20), by the oral route by gavage (dosing volume 5 mL/kg, 10 mice per group). After two hours, blood was harvested, plasma was prepared and the amount of Tryptophan present was determined by LC-MS-MS (HPLC column Unison UK-Phenyl, 75×4.6, 3 μm, flow rate 0.8 mL/min, 8 minutes gradient from 95% water+0.1% formic acid/5% Acetonitrile+0.1% formic acid to 5% water+0.1% formic acid/95% Acetonitrile+0.1% formic acid, retention time 2.4 min; API4000 MS-MS system from AB Sciex, ESI+ mode, parent ion 205.1, daughter ion 146.1).

Assay [3] concerns the target human recombinant TDO2 enzyme (Homo sapiens (Human), UniProt P48775). The experiment in a line: Assay for TDO2 enzymatic activity determination. Format: biochemical. The following applies: human recombinant TDO2, L-Trp 1 mM, kynurenine absorbance at 480 nm. Here is the method:
The compounds of formula I, its subformulae, and enantiomers, salts and solvates thereof, are useful to inhibit the enzymatic activity of human TDO2. To measure the TDO2 activity, the procedure described in Dolusic et al. J. Med. Chem.; 2011, 54, […] was adapted: the reaction mixture contained (final concentrations) potassium phosphate buffer (50 mM, pH 7.5), ascorbic acid ([…]), methylene blue (0.125 μM), catalase (40 units/mL, from bovine liver, Sigma), and human recombinant TDO2 enzyme (prepared as described in Dolusic et al. J. Med. Chem.; 2011, 54, 5320-5334; 0.9 μg) without or with the compounds of the present invention at the indicated concentrations (total volume 112.5 μL). The reaction was initiated by the addition of 37.5 μL of L-Trp (final concentration 1 mM) at room temperature. The reaction was conducted at room temperature during one hour and stopped by the addition of 30 μL of 30% (w/v) trichloroacetic acid. To convert N-formylkynurenine into kynurenine, the reaction mixture was incubated at 65° C. for 30 min. […] Kynurenine concentrations were determined by measuring the absorbance at 480 nm. A standard curve was made with pure kynurenine. The TDO activity was measured as described above using ten serial concentrations of the compounds of the present invention. Data were fitted using the Prism™ software (GraphPad Software, Inc.) using standard parameters.

Chain of TDO2 (P48776 whole entry): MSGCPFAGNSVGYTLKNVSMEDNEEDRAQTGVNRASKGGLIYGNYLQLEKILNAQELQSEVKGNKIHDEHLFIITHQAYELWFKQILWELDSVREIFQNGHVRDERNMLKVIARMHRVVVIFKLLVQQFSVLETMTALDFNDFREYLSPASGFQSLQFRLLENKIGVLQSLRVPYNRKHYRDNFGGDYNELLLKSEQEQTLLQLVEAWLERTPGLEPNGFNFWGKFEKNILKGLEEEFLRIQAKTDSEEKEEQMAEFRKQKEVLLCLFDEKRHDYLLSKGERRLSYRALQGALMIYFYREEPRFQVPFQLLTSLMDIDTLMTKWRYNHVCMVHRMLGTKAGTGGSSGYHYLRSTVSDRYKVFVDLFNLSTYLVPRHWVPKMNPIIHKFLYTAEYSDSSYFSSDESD
Chain of hTDO2 in human glioblastoma A172 cells (P48775 whole entry): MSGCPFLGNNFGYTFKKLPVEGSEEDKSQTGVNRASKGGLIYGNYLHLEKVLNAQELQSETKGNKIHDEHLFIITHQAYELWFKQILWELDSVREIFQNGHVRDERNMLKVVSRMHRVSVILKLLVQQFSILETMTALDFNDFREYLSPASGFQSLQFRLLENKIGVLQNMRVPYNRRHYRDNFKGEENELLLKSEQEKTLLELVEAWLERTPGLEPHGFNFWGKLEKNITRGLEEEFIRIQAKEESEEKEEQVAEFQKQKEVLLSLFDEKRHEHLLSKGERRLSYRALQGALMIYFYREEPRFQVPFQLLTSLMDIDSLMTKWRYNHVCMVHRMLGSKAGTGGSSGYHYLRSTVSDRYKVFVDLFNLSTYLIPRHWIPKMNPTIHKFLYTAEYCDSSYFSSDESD
Chain of human recombinant TDO2 enzyme (P48775 whole entry): as above

Broadly, the IC50 is the point on the concentration scale where inhibition reaches its midpoint. In assay [1], `CC(=O)NCCNS(=O)(=O)c1ccc(-c2c[nH]c3cc(F)ccc23)cc1` [Example 16, N-(2-(4-(6-fluoro-1H-indol-3-yl)phenylsulfonamido)-ethyl)acetamide] displayed an IC50 of 180 nM. The entries for the “Trp in plasma (average ± standard error of the mean)” value in assay [2] (30 mg/kg oral gavage), in assay [2] (60 mg/kg oral gavage) and in assay [2] (100 mg/kg oral gavage) were 32700 ng/mL, 35300 ng/mL and 34000 ng/mL, respectively.

Turning to `O=S(=O)(c1ccc(-c2c[nH]c3cc(F)ccc23)cc1)N1CCN[C@H](CO)C1` [Example 18, (S)-(4-((4-(6-fluoro-1H-indol-3-yl)phenyl)sulfonyl)piperazin-2-yl)methanol], the results for the IC50 in assay [3] and in assay [1] were 1100 nM and 190 nM, respectively. Moreover, the “increase of circulating Tryptophan compared to vehicle-treated controls” value in assay [2] (30 mg/kg oral gavage) is 67%; in assay [2] (60 mg/kg oral gavage), 81%; in assay [2] (100 mg/kg oral gavage), 74%.

Turning to `NCCNS(=O)(=O)c1cccc(-c2c[nH]c3cc(F)ccc23)c1` [Example 9, N-(2-aminoethyl)-3-(6-fluoro-1H-indol-3-yl)benzenesulfonamide], the IC50 worked out at 1800 nM in assay [3] and 240 nM in assay [1].

With `NC(=O)CCNS(=O)(=O)c1ccc(-c2c[nH]c3cc(F)ccc23)cc1` [Example 26, 3-(4-(6-fluoro-1H-indol-3-yl)phenylsulfonamido)propanamide], the IC50 was 730 nM in assay [3] and 110 nM in assay [1].

For the compound `NC(=O)[C@H]1C[C@H](NS(=O)(=O)c2ccc(-c3c[nH]c4cc(F)ccc34)cc2)C1` [Example 97, (Trans)-3-(4-(6-fluoro-1H-indol-3-yl)phenyl-sulfonamido)cyclobutanecarboxamide], the IC50 in assay [3] was found to be 820 nM; in assay [1], 100 nM.

Regarding `C[C@H](O)CNS(=O)(=O)c1ccc(-c2c[nH]c3cc(F)ccc23)cc1` [Example 94, (+)-(S)-4-(6-fluoro-1H-indol-3-yl)-N-(2-hydroxypropyl)-benzenesulfonamide], the figures for the IC50 in assay [3] and in assay [1] were 840 nM and 300 nM, respectively.
